Reference: patent US20030044413A1, “Methods of limiting apoptosis of cells” (Regents of the University of Minnesota, priority 1998, published 2003)

Key:
[1] = tested on: HuH-7 cells; test: Annexin V-biotin assay (phosphatidylserine externalization); assay type: cell-based, human; settings: 100 μM, 6 h
Procedure: Annexin V-Biotin assay. The annexin V-biotin apoptosis assay was performed on HuH-7 cells according to the manufacturer's recommendations (R & D Systems). […] The chromogenic signal generated from the binding of annexin V to exposed phosphatidylserine moieties was read at 450 nm using a microplate reader (Molecular Devices, Co., Menlo Park, Calif.).

[2] = Bile acid quantification by gas chromatography in primary rat hepatocytes; assay type: in vitro ADME; settings: 6 h
Procedure: In parallel experiments, isolated rat hepatocytes (2×10^7 cells) and HuH-7 cells (2×10^6 cells) were incubated with 50 μM or 100 μM, respectively, of DCA, UDCA or DCA+UDCA for 6 h. Cells were washed 3 times with PBS, pH 7.4, harvested, centrifuged at 800×g for 5 min in a JS-4.0 Beckman rotor (Beckman Instruments, Inc., Schaumburg, Ill.) at 4° C., washed again, and the final pellet was flash-frozen in liquid nitrogen. Cells were then analyzed for intracellular bile acid concentrations by gas chromatography.
Bile acid quantification by gas chromatography. […] Quantification of bile acids was achieved using gas chromatography, by comparing the peak height response of the individual bile acids with the peak height response obtained from the internal standard, nordeoxycholic acid, which was added to each sample prior to bile acid extraction.

[3] = tested on: calcein-loaded isolated rat liver mitochondria; test: MPT fluorimetric assay (calcein release)
Procedure: The fluorimetric assay was performed after loading the mitochondria with 10 μM calcein-acetoxymethyl ester (AM) (Molecular Probes Inc., Eugene, Oreg.) for 30 min at 37° C. in chelex-100 treated resuspension buffer before purification by sucrose-percoll gradient centrifugation (Botla et al., J. Pharmacol. Exp. Ther., 272, 930-938 (1995)). The assays were performed using calcein-loaded isolated mitochondria (1 mg protein/ml) in chelex-100-treated respiration buffer at 37° C. For the coincubation assays, the samples were preincubated for 10 min with 500 μM UDCA prior to addition of 200 μM DCA. The fluorescence of calcein was monitored by excitation and emission wavelengths of 490 nm and 515 nm, respectively, using a Perkin-Elmer luminescence spectrometer model LS-5B (Perkin-Elmer Ltd., Buckinghamshire, England).

[4] = tested on: Saos-2 cells; test: FACS analysis of ΔΨm and ROS, Saos-2 cells; assay type: cell-based, human
Procedure: A ΔΨm and ROS measurement. ΔΨm and ROS production were measured by FACScan (Becton Dickinson) analysis. Freshly isolated rat hepatocytes were cultured for 3 h as described above and then incubated with William's E medium supplemented with either 100 μM DCA, 100 μM UDCA, equal molar amounts of both, or no bile acid (control), for 6 h. Rat hepatocytes were also cultured with either 1% ethanol, 100 μM UDCA, ethanol+UDCA, or no addition (control) for 4 h. HuH-7 cells, Hep G2 cells, and human osteogenic sarcoma Saos-2 cells were incubated with TGF-β1, anti-Fas antibody or okadaic acid, respectively, for 48 h under the same conditions as outlined above. For combination studies, cells were pretreated with UDCA or hyodeoxycholic acid for 60 min prior to addition of DCA, ethanol, TGF-β1, anti-Fas antibody or okadaic acid. Aliquots of 1.0×10^6 cells were incubated for 15 min at 37° C. with 50 nM 3,3′-dihexyloxacarbocyanine iodide [DiOC6(3)], 2 μM dihydroethidium (HE), or 5 μM 2′,7′-dichlorofluorescin diacetate (H2DCFDA; Molecular Probes, Inc. Eugene, Oreg.) and analyzed by cytofluorometry (Cathcart et al., Anal. Biochem., 134, 111-116 (1983); Zamzami et al., J. Exp. Med., 181, 1661-1672 (1 995); Carter et al., J. Leukocyte Biol., 55, 253-258 (1994)).
Rat primary hepatocytes were incubated with 100 μM DCA and 1% ETOH for 6 h and 4 h, respectively; HuH-7 cells with 1 nM TGF-β1 for 48 h; Hep G2 cells with 0.5 μg/ml anti-Fas antibody (CH-11) for 48 h, and Saos-2 cells with 50 nM okadaic acid (OA) for 48 h. In each combination group, cells were pretreated with 100 μM UDCA alone for 60 min prior to addition of the inducer. Aliquots of 1.0×10^6 cells were incubated for 15 min at 37° C. with 5 μM 2′,7′-dichlorofluorescin diacetate (H2DCFDA) and analyzed by cytofluorometry.

[5] = incubated with 50 μM DCA and UDCA combined
[6] = incubated with 50 μM of the individual bile acid
[7] = inducer OA, Saos-2, inhibition by UDCA

C[C@H](CCC(=O)O)[C@H]1CC[C@H]2[C@@H]3CC[C@@H]4C[C@H](O)CC[C@]4(C)[C@H]3C[C@H](O)[C@]12C [DCA, deoxycholic acid]
optical density at 450 nm (annexin V binding) relative to controls [1]: 0.27±0.06 | intracellular concentration of the bile acid [2, 5]: 380.3±32.0 nmol/10^8 cells | intracellular concentration of the bile acid [2, 6]: 49.5±9.9 nmol/10^8 cells

C[C@H](CCC(=O)O)[C@H]1CC[C@H]2[C@@H]3[C@@H](O)C[C@@H]4C[C@H](O)CC[C@]4(C)[C@H]3CC[C@]12C [UDCA, ursodeoxycholic acid]
optical density at 450 nm (annexin V binding) relative to controls [1]: 0.08±0.02 | inhibition at 500 µM ([3]; Rattus norvegicus, 200 μM DCA, 500 μM UDCA pretreatment 10 min, read-out: inhibition of DCA-induced calcein release): ~50% | Peroxides Production (%) Inducer + UDCA ([4]; 50 nM OA 48 h, 100 μM UDCA pretreatment 60 min): 5.4 ± 1.5 % | inhibition at 100 µM ([4]; Homo sapiens, inducer OA, Saos-2, 100 μM UDCA, read-out: % Inhibition of peroxides production): 64.6 ± 7.5% | Inhibition % Superoxide Anion [4, 7]: 77.6 ± 18.1% | Inhibition % _Ψm [4, 7]: 21.9 ± 10.7 % | intracellular concentration of the bile acid [2, 5]: 263.8±39.3 nmol/10^8 cells | intracellular concentration of the bile acid [2, 6]: 306.0±135.1 nmol/10^8 cells

C[C@H](CCC(=O)O)[C@H]1CC[C@H]2[C@@H]3C[C@H](O)[C@@H]4C[C@H](O)CC[C@]4(C)[C@H]3CC[C@]12C [hyodeoxycholic acid]
effect on DCA-induced calcein release ([3]; 500 μM HDCA pretreatment): did not decrease DCA-induced mitochondrial swelling (FIG. 8B) or prevent calcein release

C=C1[C@@H](O)[C@@H]2O[C@]3(CC[C@H](/C=C/[C@@H](C)[C@@H]4CC(C)=C[C@@]5(O[C@H](C[C@@](C)(O)C(=O)O)CC[C@H]5O)O4)O3)CC[C@H]2O[C@@H]1[C@@H](O)C[C@H](C)[C@H]1O[C@@]2(CCCCO2)CC[C@H]1C [okadaic acid]
Peroxides Production (%) Inducer ([4]; 50 nM OA, 48 h, Saos-2): 15.0 ± 1.1%
